Measured values taken from patent US6965033B2, “Bisamidate phosphonate prodrugs” (Metabasis Therapeutics, Inc., priority 1999, dated 2005).
Counter-ions that a name gives are not always drawn.

Key:
rat liver FBPase = target: T1, rat liver FBPase (Rattus norvegicus, UniProt P19112); assay: Inhibition of Rat Liver FBPase; format: biochemical; details: read-out: IC50 (rlFBPase)
T1 construct: made in house; host or cells: E. coli BL21
T1 sequence (P19112 2-363 limits assumed): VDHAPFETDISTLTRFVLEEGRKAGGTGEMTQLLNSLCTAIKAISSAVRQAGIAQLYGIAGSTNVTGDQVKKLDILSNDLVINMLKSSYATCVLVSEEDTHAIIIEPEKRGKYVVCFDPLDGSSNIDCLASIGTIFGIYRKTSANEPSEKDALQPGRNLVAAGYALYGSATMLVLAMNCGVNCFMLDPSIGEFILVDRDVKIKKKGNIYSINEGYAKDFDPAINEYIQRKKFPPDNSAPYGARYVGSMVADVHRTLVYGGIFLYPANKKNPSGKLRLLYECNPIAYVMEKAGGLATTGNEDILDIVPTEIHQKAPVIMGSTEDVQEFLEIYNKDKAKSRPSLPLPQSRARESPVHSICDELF
Description: E. coli strain BL21 transformed with a human liver FBPase-encoding plasmid was obtained from Dr. M. R. El-Maghrabi at the State University of New York at Stony Brook. The enzyme was typically purified from 10 liters of recombinant E. coli culture as described (M. Gidh-Jain et al., 1994, The Journal of Biological Chemistry 269, pp 27732-27738). Enzymatic activity was measured spectrophotometrically in reactions that coupled the formation of product (fructose 6-phosphate) to the reduction of dimethylthiazoldiphenyltetrazolium bromide (MTT) via NADP^+ and phenazine methosulfate (PMS), using phosphoglucose isomerase and glucose 6-phosphate dehydrogenase as the coupling enzymes. Reaction mixtures (200 μl) were made up in 96-well microtitre plates, and consisted of 50 mM Tris-HCl, pH 7.4, 100 mM KCl, 5 mM EGTA, 2 mM MgCl2, 0.2 mM NADP, 1 mg/ml BSA, 1 mM MTT, 0.6 mM PMS, 1 unit/ml phosphoglucose isomerase, 2 units/ml glucose 6-phosphate dehydrogenase, and 0.150 mM substrate (fructose 1,6-bisphosphate). Inhibitor concentrations were varied from 0.01 μM to 10 μM. Reactions were started by the addition of 0.002 units of pure hlFBPase, and were monitored for 7 minutes at 590 nm in a Molecular Devices Plate Reader (37° C.).
E. coli strain BL21 transformed with a rat liver FBPase-encoding plasmid was obtained from Dr. M. R. El-Maghrabi at the State University of New York at Stony Brook. Recombinant FBPase was purified as described (El-Maghrabi, M. R., and Pilkis, S. J. (1991) BioChem. Biophys. Res. Commun. 176, 137-144) The enzyme assay was identical to that described above for human liver FBPase.

human liver FBPase = target: T2, human liver FBPase (Homo sapiens, UniProt P09467); assay: Inhibition of Human Liver FBPase; format: biochemical; details: read-out: IC50 (hlFBPase)
T2 construct: made in house; host or cells: E. coli BL21
T2 sequence (P09467 2-338 limits assumed): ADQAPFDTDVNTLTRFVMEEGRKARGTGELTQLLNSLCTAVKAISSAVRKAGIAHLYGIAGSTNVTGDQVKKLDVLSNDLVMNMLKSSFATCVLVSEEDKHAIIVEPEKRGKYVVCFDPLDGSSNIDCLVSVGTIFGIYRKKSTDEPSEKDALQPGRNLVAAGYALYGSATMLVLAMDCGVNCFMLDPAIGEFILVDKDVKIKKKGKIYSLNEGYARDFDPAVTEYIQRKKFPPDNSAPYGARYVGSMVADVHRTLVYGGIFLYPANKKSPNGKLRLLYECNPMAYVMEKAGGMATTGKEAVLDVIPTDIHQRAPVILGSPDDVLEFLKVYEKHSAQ
Description: […] […] Enzymatic activity was measured spectrophotometrically in reactions that coupled the formation of product (fructose 6-phosphate) to the reduction of dimethylthiazoldiphenyltetrazolium bromide (MTT) via NADP^+ and phenazine methosulfate (PMS), using phosphoglucose isomerase and glucose 6-phosphate dehydrogenase as the coupling enzymes. […] Inhibitor concentrations were varied from 0.01 μM to 10 μM. Reactions were started by the addition of 0.002 units of pure hlFBPase, and were monitored for 7 minutes at 590 nm in a Molecular Devices Plate Reader (37° C.).

| Structure (SMILES) | melting point | IC50 (rat liver FBPase) [µM] | IC50 (human liver FBPase) [µM] |
| --- | --- | --- | --- |
| Nc1nc2c(OCP(=O)(O)O)cc(C(=O)O)cc2s1 [Compound 29.6, 2-Amino-4-phosphonomethoxy-6-carboxybenzothiazole] | > 230 °C (dec.) |  |  |
| CCc1sc(N)nc1C(=O)OCP(=O)(O)O [Compound 18.3, 2-amino-5-ethyl-4-phosphonomethoxycarbonylthiazole] |  | 0.49 | 0.05 |
| Nc1nc(-c2ccccc2)nc(-c2ccc(P(=O)(O)O)o2)n1 [Compound 17.11, 2-Amino-4-phenyl-6-[2-(5-phosphono)furanyl]triazine] |  |  | 0.78 |
| CCOC(=O)c1sc(N)nc1-c1ccc(P(=O)(O)O)o1 [Compound 3.25, 2-Amino-5-ethoxycarbonyl-4-[2-(5-phosphono)furanyl]thiazole] |  | 0.5 |  |
| Cc1cc(OCP(=O)(O)O)c2nc(N)sc2c1Cl [Compound 48.2, 2-Amino-7-chloro-6-methyl-4-phosphonomethoxybenzothiazole] | > 250 °C (dec.) |  |  |
| Nc1nc(NC(=O)CP(=O)(O)O)ccc1Br [Compound 18.25, 2-Amino-3-bromo-6-[(N-phosphonoacetyl)amino]pyridine] |  |  | 2 |
| CCCSc1oc(N)nc1-c1ccc(P(=O)(O)O)o1 [Compound 10.43, 2-Amino-5-propylthio-4-[2-(5-phosphono)furanyl]oxazole] |  | 0.8 | 0.07 |
| CC(C)c1sc(N)nc1C(=O)OCP(=O)(O)O [Compound 18.20, 2-Amino-5-isopropyl-4-phosphonomethoxycarbonylthiazole] |  | 0.28 | 0.039 |
| CSc1nccnc1-c1ccc(P(=O)(O)O)o1 [Compound 17.6, 3-Methylthio-2-[2-(5-phosphono)furanyl]pyrazine] |  |  | 0.62 |
| Nc1nc2c(OCP(=O)(O)O)cc(Cl)cc2s1 [Compound 31.3, 2-Amino-6-chloro-4-phosphonomethoxybenzothiazole] | > 250 °C (dec.) |  |  |
| Cc1cc(OCP(=O)(O)O)c2nc(N)sc2c1Br [Compound 47.1, 2-Amino-7-bromo-6-methyl-4-phosphonomethoxybenzothiazole] | > 250 °C (dec.) |  |  |
| Nc1ccc(Br)c(-c2ccc(P(=O)(O)O)o2)n1 [Compound 15.2, 6-Amino-3-bromo-2-[2-(5-phosphono)furanyl]pyridine] |  | 1.3 |  |
| CCc1cc(F)c(N)c2nc(-c3ccc(P(=O)(O)O)o3)n(CC(C)C)c12 [Compound A, 4-Amino-5-fluoro-7-ethyl-1-isobutyl-2-(2-phosphono-5-furanyl)benzimidazole] |  | 0.55 |  |
| CCc1cc(CC)c(-c2ccc(P(=O)(O)O)o2)nc1N [Compound 15.4, 2-amino-3,5-diethyl-6-[2-(5-phosphono)furanyl]pyridine] | 217 to 218 °C | 4.1 |  |
| CCc1c(SC#N)cc(OCP(=O)(O)O)c2nc(N)sc12 [Compound 34.1, 2-amino-7-ethyl-6-thiocyano-4-phosphonomethoxybenzothiazole] |  | 0.16 | 0.022 |
| N#Cc1ccc(OCP(=O)(O)O)c2nc(N)sc12 [Compound 32.3, 2-Amino-7-cyano-4-phosphonomethoxybenzothiazole] | > 250 °C (dec.) |  |  |
| CSc1sc(N)nc1CCC(F)(F)P(=O)(O)O [Compound 22.2, 2-Amino-5-methylthio-4-[1-(3-phosphono-3,3-difluoro)propyl]thiazole] |  |  | 2.8 |
| Nc1c(F)ccc2c1nc(-c1ccc(P(=O)(O)O)o1)n2CC1CC1 [Compound B, 4-Amino-5-fluoro-1-cyclopropylmethyl-2-(2-phosphono-5-furanyl)benzimidazole] |  | 2.1 |  |
| CCc1cc(OCP(=O)(O)O)c2nc(N)sc2c1F [Compound 34.5, 2-Amino-6-ethyl-7-fluoro-4-phosphonomethoxybenzothiazole] | > 250 °C (dec.) |  |  |

| Structure (SMILES) | melting point | IC50 (rat liver FBPase) [µM] | IC50 (human liver FBPase) [µM] |
| --- | --- | --- | --- |
| Nc1nc(-c2cccc(P(=O)(O)O)n2)cs1 [Compound 3.67, 2-Amino-4-[2-(6-phosphono)pyridyl]thiazole hydrobromide] |  |  | 2 |
| CC(C)Cc1cn(C)nc1-c1ccc(P(=O)(O)O)o1 [Compound 19.2, 1-methyl-4-isobutyl-3-[2-(5-phosphono)furanyl]pyrazole] |  |  | 0.4 |
| Cc1cc(OCP(=O)(O)O)c2nc(N)sc2c1 [Compound 32.2, 2-Amino-6-methyl-4-phosphonomethoxybenzothiazole] | > 250 °C (dec.) |  |  |
| CC(C)Cc1[se]c(N)nc1-c1ccc(P(=O)(O)O)o1 [Compound 3.70, 2-Amino-5-isobutyl-4-[2-(5-phosphono)furanyl]selenazole] |  | 0.15 | 0.04 |
| Nc1ccc(C2CC2)c(-c2ccc(P(=O)(O)O)o2)n1 [Compound 15.20, 2-Amino-5-cyclopropyl-6-[2-(5-phosphono)furanyl]pyridine] |  | 0.6 | 0.04 |
| O=P(O)(O)c1ccc(-c2ccccn2)o1 [Compound 15.6, 2-[2-(5-Phosphono)furanyl]pyridine] |  | 7 |  |
| CCCCCCc1c(C)cc(OCP(=O)(O)O)c2nc(N)sc12 [Compound 40.2, 2-Amino-6-methyl-7-(n-hexyl)-4-phosphonomethoxybenzothiazole] | > 250 °C (dec.) |  |  |
| CCCOc1c(SC#N)cc(OCP(=O)(O)O)c2nc(N)sc12 [Compound 44.1, 2-Amino-7-propyloxy-6-thiocyano-4-phosphonomethoxy benzothiazole] | > 220 °C (dec.) |  |  |
| Cc1c(Cl)c(OCP(=O)(O)O)c2nc(N)sc2c1Cl [Compound 29.5, 2-Amino-5,7-dichloro-6-methyl-4-phosphonomethoxybenzothiazole] | > 230 °C (dec.) |  |  |
| Nc1nc(C(=O)NCP(=O)(O)O)c(Br)s1 [Compound 18.11, 2-Amino-5-bromo-4-[(N-phosphonomethyl)carbamoyl]thiazole] |  |  | 0.33 |
| CCc1cc(OCP(=O)(O)O)c2nc(N)sc2c1 [Compound 42.1, 2-Amino-6-ethyl-4-phosphonomethoxybenzothiazole] | > 220 °C (dec.) |  |  |
| Nc1nc(-c2ccc(P(=O)(O)O)o2)c(-c2cccs2)s1 [Compound 6.3] |  | 0.5 |  |
| CC(C)Cc1sc(N)nc1-c1ccc(P(=O)(O)O)o1 [Compound 3.1, 2-amino-5-isobutyl-4-[2-(5-phosphono)furanyl]thiazole] |  | 0.18 |  |
| CCOC(=O)c1oc(N)nc1-c1ccc(P(=O)(O)O)o1 [Compound 10.27, 2-Amino-5-ethoxycarbonyl-4-[2-(5-phosphono)furanyl]oxazole] |  | 2.9 | 0.038 |
| CCCc1ccc(N)nc1-c1ccc(P(=O)(O)O)o1 [Compound 15.14, 6-Amino-3-propyl-2-[2-(5-phosphono)furanyl]pyridine] |  | 0.68 | 0.032 |
| Cc1c(Cl)cc(OCP(=O)(O)O)c2nc(Cl)sc12 [Compound 37.2, 2-Chloro-4-phosphonomethoxy-6-chloro-7-methyl benzothiazole] | > 250 °C (dec.) |  |  |
| COc1cc(OCP(=O)(O)O)c2nc(N)sc2c1 [Compound 45.1, 2-Amino-6-methoxy-4-phosphonomethoxybenzothiazole] | > 230 °C (dec.) |  |  |
| Nc1ncnc2c1ncn2[C@@H]1O[C@H](COP(=O)(O)O)[C@@H](O)[C@H]1O [AMP, reference compound] |  | 20 |  |
| Nc1nc2c(OCP(=O)(O)O)cc(Cl)c(Cl)c2s1 [Compound 31.4, 2-Amino-6,7-dichloro-4-phosphonomethoxybenzothiazole] | > 250 °C (dec.) |  |  |
